Where “and” joins values, the source holds several entries; their conditions need not be identical. Equal entries are not always repeated. Where two headings read alike, the source gives them in different places.
Legend:
[1] = tested on: Capan-1 (K-Ras G12V); assay: CellTiter-Glo cell viability assay, 5-day treatment; format: cell-based; conditions: Homo sapiens, CAPAN-1, 120 h, 5-day treatment; read-out: Capan-1 Cell Viability assay data (K-Ras G12V, IC50)
How it was run: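 Five-day compound treatment of plated cells; luminescent read after ~30 min at RT. Percent-of-DMSO data fit to a four-parameter logistic model.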

[2] = biological target: KRAS G12C (Homo sapiens, UniProt P01116+P62937, G12C); assay: Disruption of BRAF RBD interaction with Ras (FRET / MOA assay, with Cyclophilin A); format: biochemical
How it was run: (§1)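 Here, compound titrations (ten points, factor 3, from 30 μM final) act on nucleotide-bound K-Ras and Cyclophilin A, and ternary complex formation disrupts the RAF RBD interaction.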

[3] = biological target: KRAS G12D (Homo sapiens, UniProt P01116+P62937, G12D); assay: as above; format: biochemical
How it was run: as §1

[4] = biological target: KRAS G12S (Homo sapiens, UniProt P01116+P62937, G12S); assay: as above; format: biochemical; conditions: read-out: KRAS G12S FRET data, IC50
How it was run: as §1

[5] = biological target: KRAS G12V (Homo sapiens, UniProt P01116+P62937, G12V); assay: as above; format: biochemical
How it was run: as §1

[6] = biological target: KRAS G13C (Homo sapiens, UniProt P01116+P62937, G13C); assay: as above; format: biochemical
How it was run: as §1

[7] = biological target: KRAS G13D (Homo sapiens, UniProt P01116+P62937, G13D); assay: as above; format: biochemical
How it was run: as §1

[8] = biological target: KRAS WT (Homo sapiens, UniProt P01116+P62937); assay: as above; format: biochemical; conditions: KRAS WT; read-out: KRAS WT FRET data IC50
How it was run: as §1

[9] = biological target: NRAS G12C (Homo sapiens, UniProt P01111+P62937, G12C); assay: as above; format: biochemical; conditions: NRAS G12C; read-out: NRAS G12C FRET data IC50
[10] = biological target: NRAS Q61K (Homo sapiens, UniProt P01111+P62937, Q61K); assay: as above; format: biochemical; conditions: NRAS Q61K; read-out: NRAS Q61K FRET data IC50
How it was run: (§2)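 TR-FRET in 25 mM HEPES pH 7.3, 100 mM NaCl, 5 mM MgCl2, 0.1% BSA: 25 μM Cyclophilin A, 12.5 nM His6-Ras-GMPPNP, 50 nM GST-BRAF RBD with compound (10-point 3-fold series from 30 μM), 3 h at 25° C. Anti-His Eu/anti-GST APC added, 1.5 h more; IC50 from decreased FRET ratio versus DMSO.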

[11] = biological target: NRAS Q61R (Homo sapiens, UniProt P01111+P62937, Q61R); assay: as above; format: biochemical; conditions: NRAS Q61R; read-out: NRAS Q61R FRET data IC50
How it was run: as §2

[12] = biological target: NRAS WT (Homo sapiens, UniProt P01111+P62937); assay: as above; format: biochemical; conditions: NRAS WT; read-out: NRAS WT FRET data IC50
How it was run: as §2

[13] = tested on: AsPC-1 (K-Ras G12D); assay: Potency assay: pERK, other cell line; format: cell-based; conditions: Homo sapiens, ASPC1
[14] = tested on: Capan-1 (K-Ras G12V); assay: Potency assay: pERK, other cell line; format: cell-based; conditions: Homo sapiens
[15] = read-out: KRAS G12D FRET data, IC50
[16] = KRAS G12V, read-out: KRAS G12V FRET data IC50
[17] = KRAS G12C, read-out: KRAS G12C FRET data IC50
[18] = KRAS G13C, read-out: KRAS G13C FRET data IC50
[19] = KRAS G13D, read-out: KRAS G13D FRET data IC50

Chain of KRAS G12C (P01116 1-169 isoform P01116-2 G12C): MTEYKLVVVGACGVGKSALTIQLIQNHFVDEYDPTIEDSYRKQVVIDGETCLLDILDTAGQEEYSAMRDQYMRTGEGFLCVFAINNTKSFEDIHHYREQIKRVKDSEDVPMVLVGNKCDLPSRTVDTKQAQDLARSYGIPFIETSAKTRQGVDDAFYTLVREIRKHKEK
Chain of KRAS G12C (P62937 whole entry): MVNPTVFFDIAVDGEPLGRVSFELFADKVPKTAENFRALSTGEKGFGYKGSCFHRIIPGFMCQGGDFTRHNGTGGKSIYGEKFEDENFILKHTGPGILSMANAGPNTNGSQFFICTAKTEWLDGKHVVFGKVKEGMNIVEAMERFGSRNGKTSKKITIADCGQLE
Chain of KRAS G13D (P01116 1-169 isoform P01116-2 G13D limits assumed): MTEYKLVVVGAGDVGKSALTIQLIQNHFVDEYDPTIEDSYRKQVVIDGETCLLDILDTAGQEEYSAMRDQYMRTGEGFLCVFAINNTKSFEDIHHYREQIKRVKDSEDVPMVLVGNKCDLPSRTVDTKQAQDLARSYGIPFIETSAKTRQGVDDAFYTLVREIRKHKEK
Chain of KRAS G13D (P62937 whole entry): as the sequence (P62937 whole entry) above
Chain of NRAS G12C (P01111 whole entry G12C): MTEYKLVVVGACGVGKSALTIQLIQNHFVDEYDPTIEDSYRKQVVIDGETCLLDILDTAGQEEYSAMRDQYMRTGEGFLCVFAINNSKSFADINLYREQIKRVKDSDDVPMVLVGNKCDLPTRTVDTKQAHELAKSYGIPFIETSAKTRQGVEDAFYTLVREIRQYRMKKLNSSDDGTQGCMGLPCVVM
Chain of NRAS G12C (P62937 whole entry): as the sequence (P62937 whole entry) above
Chain of KRAS G12D (P01116 1-169 isoform P01116-2 G12D limits assumed): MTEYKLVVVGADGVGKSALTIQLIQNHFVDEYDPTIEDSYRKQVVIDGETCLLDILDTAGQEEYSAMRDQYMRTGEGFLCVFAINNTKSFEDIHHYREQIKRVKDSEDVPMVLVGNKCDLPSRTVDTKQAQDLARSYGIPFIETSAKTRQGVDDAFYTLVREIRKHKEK
Chain of KRAS G12D (P62937 whole entry): as the sequence (P62937 whole entry) above
Chain of NRAS Q61R (P01111 whole entry Q61R): as the sequence (P01111 whole entry G12C) above, with C12G, Q61R counted along it
Chain of NRAS Q61R (P62937 whole entry): as the sequence (P62937 whole entry) above
Chain of KRAS WT (P01116 1-169 isoform P01116-2 limits assumed): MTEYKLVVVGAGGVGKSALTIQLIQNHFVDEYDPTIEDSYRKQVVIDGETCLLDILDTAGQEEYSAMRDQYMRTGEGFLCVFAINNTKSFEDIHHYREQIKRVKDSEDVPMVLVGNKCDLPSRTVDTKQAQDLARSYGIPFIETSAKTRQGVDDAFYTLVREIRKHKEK
Chain of KRAS WT (P62937 whole entry): as the sequence (P62937 whole entry) above
Chain of KRAS G12V (P01116 1-169 isoform P01116-2 G12V limits assumed): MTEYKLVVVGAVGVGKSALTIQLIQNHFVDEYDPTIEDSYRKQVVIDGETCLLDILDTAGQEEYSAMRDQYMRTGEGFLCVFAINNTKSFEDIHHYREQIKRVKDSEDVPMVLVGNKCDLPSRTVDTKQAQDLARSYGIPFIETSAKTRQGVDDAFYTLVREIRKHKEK
Chain of KRAS G12V (P62937 whole entry): as the sequence (P62937 whole entry) above
Chain of KRAS G13C (P01116 1-169 isoform P01116-2 G13C): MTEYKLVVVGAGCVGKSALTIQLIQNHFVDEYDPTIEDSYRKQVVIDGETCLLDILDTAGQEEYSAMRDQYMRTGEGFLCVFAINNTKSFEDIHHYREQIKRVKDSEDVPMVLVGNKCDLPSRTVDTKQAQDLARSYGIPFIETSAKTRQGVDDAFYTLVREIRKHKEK
Chain of KRAS G13C (P62937 whole entry): as the sequence (P62937 whole entry) above
Chain of KRAS G12S (P01116 1-169 isoform P01116-2 G12S limits assumed): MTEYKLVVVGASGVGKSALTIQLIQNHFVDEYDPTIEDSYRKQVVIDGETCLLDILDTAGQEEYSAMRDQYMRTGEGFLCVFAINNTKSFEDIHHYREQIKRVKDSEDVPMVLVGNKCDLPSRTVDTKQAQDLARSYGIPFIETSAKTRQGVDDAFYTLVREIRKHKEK
Chain of KRAS G12S (P62937 whole entry): as the sequence (P62937 whole entry) above
Chain of NRAS Q61K (P01111 whole entry Q61K): as the sequence (P01111 whole entry G12C) above, with C12G, Q61K counted along it
Chain of NRAS Q61K (P62937 whole entry): as the sequence (P62937 whole entry) above
Chain of NRAS WT (P01111 whole entry): as the sequence (P01111 whole entry G12C) above, with C12G counted along it
Chain of NRAS WT (P62937 whole entry): as the sequence (P62937 whole entry) above

CCn1c(-c2cccnc2[C@H](C)OC)c2c3cc(ccc31)-c1cc(O)cc(c1)C[C@H](NC(=O)[C@H](C(C)C)N(C)C(=O)[C@H]1CCN(C(=O)OC)C1)C(=O)N1CCC[C@H](N1)C(=O)OCC(C)(C)C2 (atropisomer, axis not shown) [Example A3]
IC50 [1]: 10 to 100 nM
IC50 ([2]; read-out: FRET G12C IC50): 29 nM
IC50 ([2]; read-out: KRAS G12C FRET data, IC50): 1000 to 10000 nM and 10 to 100 nM
IC50 ([3]; read-out: FRET G12D IC50): 545 nM
IC50 [3, 15]: 100 to 1000 nM and > 10000 nM
IC50 [4]: 1000 to 10000 nM and 10 to 100 nM
IC50 [5, 16]: 1000 to 10000 nM and 10 to 100 nM
IC50 ([5]; read-out: FRET G12V IC50): 43 nM
IC50 ([6]; read-out: FRET G13C IC50): 99 nM
IC50 ([6]; read-out: KRAS G13C FRET data, IC50): 1000 to 10000 nM and 10 to 100 nM
IC50 ([7]; read-out: FRET G13D IC50): 160 nM
IC50 [8]: 1000 to 10000 nM and 10 to 100 nM
IC50 [9]: 1000 to 10000 nM and 10 to 100 nM
IC50 [10]: 100 to 1000 nM
IC50 [11]: 100 to 1000 nM
IC50 [12]: 10 to 100 nM
EC50 [13]: 144 nM
EC50 [14]: 8 nM

C=CC(=O)N1CC[C@@H](N(C)C(=O)N(C)[C@H](C(=O)N[C@H]2Cc3nc(cs3)-c3ccc4c(c3)c(c(-c3cccnc3[C@H](C)OC)n4CC(F)(F)F)CC(C)(C)COC(=O)[C@@H]3CCCN(N3)C2=O)C(C)C)C1 (atropisomer, axis not shown) [Example A728]
IC50 [2, 17]: 100 to 1000 nM
IC50 [3, 15]: 1000 to 10000 nM
IC50 [4]: 100 to 1000 nM
IC50 [5, 16]: 100 to 1000 nM
IC50 [6, 18]: 100 to 1000 nM
IC50 [7, 19]: 1000 to 10000 nM
IC50 [8]: 100 to 1000 nM
IC50 [9]: 100 to 1000 nM
IC50 [10]: 100 to 1000 nM
IC50 [11]: 100 to 1000 nM

CCn1c(-c2cccnc2[C@H](C)OC)c2c3cc(ccc31)-c1cccc(c1)C[C@H](NC(=O)[C@@H](CN1CC[C@]3(CCN(C(=O)C#C[C@H]4COCCN4C)C3)C1=O)C(C)C)C(=O)N1CCCC(N1)C(=O)OCC(C)(C)C2 (some centres unmarked) [Example A592]
IC50 [2, 17]: 10 to 100 nM
IC50 [3, 15]: > 10000 nM
IC50 [4]: 1000 to 10000 nM
IC50 [5, 16]: 1000 to 10000 nM
IC50 [6, 18]: 1000 to 10000 nM
IC50 [7, 19]: > 10000 nM
IC50 [8]: > 10000 nM
IC50 [9]: 10 to 100 nM
IC50 [10]: > 10000 nM
IC50 [11]: > 10000 nM

Reference: patent US20230233569A1 (Revolution Medicines, Inc., priority 2020, published 2023)
